From PMC10683472, “Deep Learning-Driven Library Design for the De Novo Discovery of Bioactive Thiopeptides” (ACS Central Science, 2023)
Like-named read-outs stand apart in the source and are kept apart here. *1 amine or outer side, *2 acyl side, *3 side chain or, on linkers, in order; H or OH if unused. Where a SMILES comes first, the peptide text is derived from it. Where no end group is shown, it is not given here. [ ]: non-standard residue; d: D form. hGln = L-homoglutamine, NC(=O)CCC[C@H](N[*:1])C(=O)[*:2]; pyridine‑bisazole = not defined here; Nle = CCCC[C@H](N)C(=O)O; Dhb = C/C=C(\N)C(=O)O

What was measured:
[1] = molecular target: T1, Biotinylated IRAK4 (kinase domain, amino acids 1-460; NP_057207.2) (Homo sapiens, UniProt Q9NWZ3); experiment: Surface plasmon resonance binding to IRAK4
T1 construct: acids 1-460; NP_057207.2) was purchased from Carna Biosciences; purchased Carna Biosciences (Kobe, Japan)
T1 sequence (Q9NWZ3 1-460): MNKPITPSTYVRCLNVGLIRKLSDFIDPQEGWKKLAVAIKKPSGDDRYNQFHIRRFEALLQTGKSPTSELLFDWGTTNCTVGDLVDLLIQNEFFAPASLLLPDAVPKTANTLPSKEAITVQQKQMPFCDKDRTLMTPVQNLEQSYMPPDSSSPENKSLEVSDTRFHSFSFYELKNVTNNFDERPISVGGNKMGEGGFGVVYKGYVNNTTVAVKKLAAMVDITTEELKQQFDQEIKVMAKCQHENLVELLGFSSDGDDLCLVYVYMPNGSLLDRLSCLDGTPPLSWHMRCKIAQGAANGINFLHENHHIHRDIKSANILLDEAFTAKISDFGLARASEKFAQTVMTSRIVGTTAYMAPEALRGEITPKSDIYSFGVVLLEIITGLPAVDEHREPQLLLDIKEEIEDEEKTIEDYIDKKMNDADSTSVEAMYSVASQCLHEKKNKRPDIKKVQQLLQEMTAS
Excerpt: Reagents were purchased from Nacalai Tesque, Wako Pure Chemical Industries, Sigma-Aldrich Japan, or TCI Chemicals and were used as received. Biotinylated IRAK4 (kinase domain, amino acids 1-460; NP_057207.2) was purchased from Carna Biosciences (Kobe, Japan). Recombinant human TLR10 Fc Chimera protein (extracellular domain, amino acid 20-576; Q9BXR5) was purchased from R&D system (#6619-TR-050). Anti-HA magnetic beads were from Pierce Thermo Fisher Scientific (#88836). Magnetic beads with immobilized streptavidin were from Invitrogen (Dynabeads Streptavidin C1, # 65001). Magnetic beads with immobilized streptavidin were from Invitrogen (Dynabeads Streptavidin M280, #11206D).
Protein purification and synthesis of Streptomyces lactacystinaeus tRNAGlu were done as previously described.1–3 Protein concentration measurements were carried out on a Nanodrop 2000c spectrophotometer (Thermo Scientific) equipped with a 5 mm pathlength quartz cuvette using extinction coefficient values calculated with ExPASy ProtParam tool (https://web.expasy.org/protparam).
Biochemical measurements (sections 2.10 – 2.14) were performed in triplicate or more. Most experiments were reproduced to an analogous outcome at least once. In the cases where the determination of biophysical parameters involved cell assay (CP50 and IC50), reported are standard errors of the fit; otherwise, error bars are standard deviations.
RNA extracted from the gel with 300 mM NaCl were collected by ethanol precipitation followed by centrifugation (15300 g for 15 min) and dissolved in water for storage. tRNAini was aminoacylated with eFx using biotin-Phe-CME as a substrate. tRNAini (25 µM) and eFx (25 µM) were incubated with biotin-Phe-CME (5 mM) in HEPES-KOH buffer (50 mM; pH 7.5) containing 600 mM MgCl2 on ice for 2 h. The reactions were stopped with the addition of 300 mM NaOAc (pH 5.2), and precipitated with ethanol. Precipitated RNA was recovered by centrifugation (15300 g for 15 min). The pellet was washed with 70% ethanol in water (v/v) containing 100 mM NaOAc (pH 5.2) and used in translation.
2.10. Surface plasmon resonance
Binding affinities between the thiopeptides and IRAK4/TLR10 were measured with a Biacore 8K instrument (GE Healthcare) at 25 °C. The assay buffer for IRAK4 binding analysis contained 50 mM Tris (pH 7.5), 150 mM NaCl, 10 mM MgCl2, 0.05% (v/v) tween-20 and 0.1% (v/v) DMSO. The […]
Biotinylated IRAK4 was immobilized on a Biacore CAP chip (GE Healthcare) to a surface density […]
step was allowed to proceed for 480 s. Kinetic parameters and affinities of the interaction were […]
provided by the manufacturer. The interaction sensorgrams were measured as single -cycle […]
Kinetic parameters and affinities of the
Evaluation Software v.3.0 (GE Healthcare).

IRAK4 [2] = molecular target: T2, IRAK4 (Homo sapiens, UniProt Q9NWZ3); experiment: Single-round mRNA display binding assay (qPCR), IRAK4; design: acids 1-460; NP_057207.2) was purchased from Carna Biosciences; purchased Carna Biosciences (Kobe, Japan); conditions: ratio of cDNA recoveries (qPCR), IRAK4 pulldown over beads only, single-round selection
T2 sequence (Q9NWZ3 1-460): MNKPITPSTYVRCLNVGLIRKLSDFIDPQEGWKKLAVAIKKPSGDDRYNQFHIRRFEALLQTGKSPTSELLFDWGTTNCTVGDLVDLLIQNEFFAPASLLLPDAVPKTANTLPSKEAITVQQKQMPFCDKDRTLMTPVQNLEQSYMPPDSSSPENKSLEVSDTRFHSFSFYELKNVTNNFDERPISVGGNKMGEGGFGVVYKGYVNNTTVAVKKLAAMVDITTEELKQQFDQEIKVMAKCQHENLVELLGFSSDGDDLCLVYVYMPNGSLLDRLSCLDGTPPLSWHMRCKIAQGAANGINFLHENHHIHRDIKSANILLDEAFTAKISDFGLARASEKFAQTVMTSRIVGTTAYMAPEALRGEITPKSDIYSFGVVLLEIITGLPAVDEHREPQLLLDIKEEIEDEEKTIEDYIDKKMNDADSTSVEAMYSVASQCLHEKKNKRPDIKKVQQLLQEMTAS

Serum stability assay = format: in vitro ADME; conditions: human serum, 37 °C, LC/MS; for half-life at 10 µM: pH 7.6, read-out: serum stability τ1/2 (converted)
Protocol: Next, we tested the metabolic stability of the discovered thiopeptides. The compounds were incubated in human serum at 37 °C in the presence of an internal control, and the amounts of the remaining analytes were quantified by LC/MS (Figures S27 and 28). […] At the other extreme, IR11 rapidly degraded in human serum with τ1/2 = 0.5 h. […]
Kinetic parameters and affinities of the […]
2.12. Thiopeptide metabolic stability experiments
The mixtures were stirred
well and transferred to a 37 °C thermostat. […]

IRAK4 [3] = molecular target: T2, IRAK4; experiment: mRNA display affinity selection against IRAK4, NGS abundance; format: binding; design: acids 1-460; NP_057207.2) was purchased from Carna Biosciences; purchased Carna Biosciences (Kobe, Japan); conditions: IRAK4 selection, NGS abundance rank
IRAK4 [4] = molecular target: T2, IRAK4; experiment: biochemical
THP1-XBlue cells = experiment: Cell viability with Cell Counting Kit-8; conditions: at the tested concentrations
Protocol: 2.13. NF-kB signaling pathway inhibition assay
THP-1 Cellular Assay. THP1-XBlue cells containing an NF-kB-inducible secreted embryonic alkaline phosphatase (SEAP) reporter gene (InvivoGen) were seeded to 96-well assay plates (10^5 cells/well) with RPMI 1640 culture medium containing 10% fetal calf serum. The cells were pre-treated with various concentration of analyte thiopeptide inhibitor in 0.1% DMSO and incubated at 37 °C for 6 h. LPS-EK (30 ng/mL, InvivoGen) was subsequently added to activate the NF-kB signalling for 20 h. To quantitate SEAP activity, supernatants were harvested (300 g, 5min) and mixed with Quanti-Blue (InvivoGen) detection reagent following the manufacturer’s instructions.
Cells were assayed with cell counting kit-8 in parallel to rule out potential cytotoxicity. The plates

[5] = molecular target: T3, interleukin-1 receptor-associated kinase 4 (UniProt Q9NWZ3 1-460); experiment: cell-based or functional assay
T3 sequence (looked up): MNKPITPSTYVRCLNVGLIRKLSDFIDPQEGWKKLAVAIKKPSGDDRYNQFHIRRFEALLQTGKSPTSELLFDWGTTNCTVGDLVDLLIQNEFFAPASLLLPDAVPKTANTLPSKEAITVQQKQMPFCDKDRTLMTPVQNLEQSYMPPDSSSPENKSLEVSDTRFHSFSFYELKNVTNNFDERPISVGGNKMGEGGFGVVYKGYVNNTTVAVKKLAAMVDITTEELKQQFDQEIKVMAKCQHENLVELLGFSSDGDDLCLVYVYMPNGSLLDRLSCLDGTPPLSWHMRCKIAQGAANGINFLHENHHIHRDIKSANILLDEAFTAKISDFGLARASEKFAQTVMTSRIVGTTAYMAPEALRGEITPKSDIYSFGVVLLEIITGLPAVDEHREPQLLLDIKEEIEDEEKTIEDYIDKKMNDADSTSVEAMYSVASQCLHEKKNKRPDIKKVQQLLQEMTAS

[6] = molecular target: T4, interleukin-1 receptor-associated kinase 4 (UniProt Q9NWZ3 1-460); experiment: SPR; surface plasmon resonance of synthetic thiopeptides on their target protein; conditions in S.I. 2.10 (not shown); conditions: both partners purified
T4 construct: interleukin-1 receptor-associated kinase 4 (IRAK4); also called IRAK4; IRAK4 kinase
T4 sequence (looked up): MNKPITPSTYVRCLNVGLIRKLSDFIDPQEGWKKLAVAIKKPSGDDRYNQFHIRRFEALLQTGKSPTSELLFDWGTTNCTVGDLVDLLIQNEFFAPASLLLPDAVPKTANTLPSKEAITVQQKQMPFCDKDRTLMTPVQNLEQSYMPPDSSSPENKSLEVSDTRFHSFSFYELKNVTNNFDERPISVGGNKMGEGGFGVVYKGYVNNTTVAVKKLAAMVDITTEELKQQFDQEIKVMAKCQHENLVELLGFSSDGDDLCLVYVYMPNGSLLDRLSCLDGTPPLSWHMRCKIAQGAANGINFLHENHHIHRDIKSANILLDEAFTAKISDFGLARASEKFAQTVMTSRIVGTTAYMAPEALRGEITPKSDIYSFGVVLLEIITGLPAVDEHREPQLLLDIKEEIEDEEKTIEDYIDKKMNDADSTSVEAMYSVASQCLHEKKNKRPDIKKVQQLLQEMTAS

## C=C1NC(=O)[C@H](CCCCN)NC(=O)[C@H](Cc2c[nH]c3ccccc23)NC(=O)[C@H]([C@@H](C)O)NC(=O)[C@H](CCCNC(=N)N)NC(=O)[C@H](CCCNC(=N)N)NC(=O)[C@H](CCCCN)NC(=O)[C@H](Cc2c[nH]c3ccccc23)NC(=O)[C@H](CCCC(N)=O)NC(=O)[C@H](CC(C)C)NC(=O)[C@H]([C@@H](C)O)NC(=O)[C@H](Cc2c[nH]c3ccccc23)NC(=O)c2ccc(-c3nc(C(=O)OC)cs3)nc2-c2csc1n2 [IR8] (HELM PEPTIDE1{W.T.L.[O=C([C@H](CCCC(=O)[*:3])N[*:1])[*:2]].W.K.R.R.T.W.K}|PEPTIDE2{[am]}|CHEM1{[C=C(N[*:2])c1nc(-c2nc(-c3nc(C(=O)OC)cs3)ccc2C(=O)[*:1])cs1]}$PEPTIDE1,PEPTIDE2,4:R3-1:R1|PEPTIDE1,CHEM1,1:R1-1:R1|PEPTIDE1,CHEM1,11:R2-1:R2$$$V2.0; bridges inferred)
[1]
  koff: 0.027 s⁻¹
  kon: 1.24e+06 M⁻¹ s⁻¹
IRAK4 [2]
  display P/N ratio: 152
Serum stability assay
  half-life at 10 µM: 42 ± 4.8 min
IRAK4 [3]
  rank in pulldown(+): 9
  rank in pulldown(–): 9

## C=C1NC(=O)[C@H](Cc2c[nH]cn2)NC(=O)[C@@H]2CCCN2C(=O)[C@H](CCCNC(=N)N)NC(=O)[C@H](CCCNC(=N)N)NC(=O)[C@H](CCCNC(=N)N)NC(=O)[C@H](C)NC(=O)[C@H](Cc2c[nH]c3ccccc23)NC(=O)[C@H](Cc2ccc(O)cc2)NC(=O)[C@H](CC(C)C)NC(=O)[C@H](CO)NC(=O)[C@H](CCSC)NC(=O)[C@H](C)NC(=O)[C@H](Cc2c[nH]c3ccccc23)NC(=O)c2ccc(-c3nc(C(=O)OC)cs3)nc2-c2csc1n2 [IR11] (HELM PEPTIDE1{W.A.M.S.L.Y.W.A.R.R.R.P.H}|CHEM1{[C=C(N[*:2])c1nc(-c2nc(-c3nc(C(=O)OC)cs3)ccc2C(=O)[*:1])cs1]}$PEPTIDE1,CHEM1,1:R1-1:R1|PEPTIDE1,CHEM1,13:R2-1:R2$$$V2.0)
IRAK4 [4]
  IC50: 4.1 ± 0.3 µM
[1]; SPR, IRAK4, read-out: koff
  koff: 0.0021 s⁻¹
[1]; SPR, IRAK4, read-out: kon
  kon: 783 M⁻¹ s⁻¹
IRAK4 [2]
  display P/N ratio: 1072
Serum stability assay
  serum stability τ1/2: 0.5 h
  half-life at 10 µM: 30 ± 2.4 min
IRAK4 [3]
  rank in pulldown(+): 30
  rank in pulldown(–): 15

## CC[C@@H]1[C@H](F)C(=O)N[C@@H]1COc1nccc2cc(C(N)=O)c(OC)cc12 [PF-06650833, 1-{[(2S,3S,4S)-3-Ethyl-4-fluoro-5-oxopyrrolidin-2-yl]methoxy}-7-methoxyisoquinoline-6-carboxamide, reference compound]
THP1-XBlue cells
  cytotoxicity (Cell Counting Kit-8): not cytotoxic

B1: thiopeptide IR1 (synthetic) (peptide)
chain: SWS[Nle]KRQFITWHW[Dhb]SCSC
modifications: bridge (positions not given here) via pyridine‑bisazole; not fully specified; reading uncertain; also: dehydroamino acids, macrocycle with pyridine-bisazole moiety, oxazole to thiazole mutation
[5]
  IC50, lipopolysaccharide-induced NF-κB signaling (secreted alkaline phosphatase reporter) in THP1-XBlue monocytes: 7 µM

B2: thiopeptide IR1 (synthetic) (peptide)
chain: SWS[Nle]KRQFITWHW[Dhb]SCSC
modifications: bridge (positions not given here) via pyridine‑bisazole; reading uncertain; also: macrocycle closed through pyridine-bisazole moiety, oxazole to thiazole change
[6]
  Kd: 0.23 µM

B3: thiopeptide IR8 (synthetic) (peptide)
chain: SWTL[hGln]WKRRTWKSCSC
modifications: bridge (positions not given here) via pyridine‑bisazole; reading uncertain; also: macrocycle closed through a pyridine-bisazole moiety, oxazole to thiazole change
[6]
  Kd: 0.022 µM

B4: thiopeptide IR11 (synthetic) (peptide)
chain: SWAMSLYWARRRPHSCSC
modifications: bridge (positions not given here) via pyridine‑bisazole; reading uncertain; also: macrocycle closed through pyridine-bisazole moiety, oxazole to thiazole change
[6]
  Kd: 2.7 µM
